Laboratory results taken from the CheMixHub viscosity set.

Test: xn = mol fraction of the nth substance listed

C1CCNCC1 + O
viscosity [mPa·s], 101 kPa
Settings | x1 = 0.05 | x1 = 0.1 | x1 = 0.2 | x1 = 0.3 | x1 = 0.35 | x1 = 0.4 | x1 = 0.6 | x1 = 0.8
298.15 K | 1.9 | 3.06 | 4.76 | 5.4 | 5.42 | 5.13 | 3.38 | 2.05
323.15 K | 0.887 | 1.26 | 1.77 | 1.94 | 1.94 | 1.86 | 1.38 | 0.993

CCC(=O)[O-].CC[N+]1(C)CCOCC1 + O
viscosity [mPa·s], 100 kPa
Settings | x1 = 0.0672 | x1 = 0.1305 | x1 = 0.2131 | x1 = 0.2851 | x1 = 0.4005 | x1 = 0.5397 | x1 = 0.6231 | x1 = 0.7436
298.15 K | 4.98 | 16.4 | 50.3 | 98.7 | 318 | 1237 | 2366 | –
303.15 K | 4.23 | 13.2 | 38.8 | 74.6 | 223 | 796 | 1660 | –
308.15 K | 3.64 | 11.2 | 30.6 | 57.2 | 160 | 530 | 1149 | –
313.15 K | 3.16 | 9.32 | 24.5 | 44.6 | 119 | 366 | 786 | 2582
318.15 K | 2.76 | 7.58 | 20 | 35.4 | 89.3 | 258 | 543 | 1792
323.15 K | 2.44 | 6.46 | 16.5 | 28.7 | 69.1 | 187 | 372 | 1137

CCCC(=O)O + O
Settings | viscosity [mPa·s]
293.15 K, 101 kPa, x1 = 0.015 | 1.31
293.15 K, 101 kPa, x1 = 0.034 | 1.64
293.15 K, 101 kPa, x1 = 0.078 | 2.41
293.15 K, 101 kPa, x1 = 0.165 | 3.24
293.15 K, 101 kPa, x1 = 0.316 | 3.71
293.15 K, 101 kPa, x1 = 0.497 | 3.6
293.15 K, 101 kPa, x1 = 0.664 | 3.25
293.15 K, 101.33 kPa, x1 = 0.0222 | 1.332
293.15 K, 101.33 kPa, x1 = 0.0806 | 2.265
293.15 K, 101.33 kPa, x1 = 0.17 | 3.095
298.15 K, 101 kPa, x1 = 0.006288 | 0.973
298.15 K, 101 kPa, x1 = 0.01294 | 1.065
298.15 K, 101 kPa, x1 = 0.02 | 1.152
298.15 K, 101 kPa, x1 = 0.02743 | 1.248
298.15 K, 101 kPa, x1 = 0.03475 | 1.344
298.15 K, 101 kPa, x1 = 0.04154 | 1.44
298.15 K, 101 kPa, x1 = 0.04898 | 1.55
298.15 K, 101 kPa, x1 = 0.05981 | 1.695
298.15 K, 101 kPa, x1 = 0.07342 | 1.881
298.15 K, 101 kPa, x1 = 0.08697 | 2.038
298.15 K, 101 kPa, x1 = 0.1045 | 2.222
298.15 K, 101 kPa, x1 = 0.1191 | 2.365
298.15 K, 101 kPa, x1 = 0.133 | 2.463
298.15 K, 101 kPa, x1 = 0.144 | 2.538
298.15 K, 101 kPa, x1 = 0.17 | 2.699
298.15 K, 101 kPa, x1 = 0.2 | 2.823
298.15 K, 101 kPa, x1 = 0.237 | 2.941
298.15 K, 101 kPa, x1 = 0.277 | 3.039
298.15 K, 101 kPa, x1 = 0.321 | 3.121
298.15 K, 101 kPa, x1 = 0.36 | 3.129
298.15 K, 101 kPa, x1 = 0.408 | 3.136
298.15 K, 101 kPa, x1 = 0.472 | 3.095
298.15 K, 101 kPa, x1 = 0.529 | 3.032
298.15 K, 101 kPa, x1 = 0.618 | 2.861
298.15 K, 101 kPa, x1 = 0.669 | 2.702
298.15 K, 101 kPa, x1 = 0.816 | 2.249
308.15 K, 101 kPa, x1 = 0.006288 | 0.777
308.15 K, 101 kPa, x1 = 0.01294 | 0.844
308.15 K, 101 kPa, x1 = 0.02 | 0.911
308.15 K, 101 kPa, x1 = 0.02743 | 0.979
308.15 K, 101 kPa, x1 = 0.03475 | 1.048
308.15 K, 101 kPa, x1 = 0.04154 | 1.12
308.15 K, 101 kPa, x1 = 0.04898 | 1.201
308.15 K, 101 kPa, x1 = 0.05981 | 1.308
308.15 K, 101 kPa, x1 = 0.07342 | 1.445
308.15 K, 101 kPa, x1 = 0.08697 | 1.563
308.15 K, 101 kPa, x1 = 0.1045 | 1.695
308.15 K, 101 kPa, x1 = 0.1191 | 1.769
308.15 K, 101 kPa, x1 = 0.133 | 1.873
308.15 K, 101 kPa, x1 = 0.144 | 1.932
308.15 K, 101 kPa, x1 = 0.17 | 2.049
308.15 K, 101 kPa, x1 = 0.2 | 2.15
308.15 K, 101 kPa, x1 = 0.237 | 2.243
308.15 K, 101 kPa, x1 = 0.277 | 2.322
308.15 K, 101 kPa, x1 = 0.321 | 2.392
308.15 K, 101 kPa, x1 = 0.36 | 2.415
308.15 K, 101 kPa, x1 = 0.408 | 2.415
308.15 K, 101 kPa, x1 = 0.472 | 2.398
308.15 K, 101 kPa, x1 = 0.529 | 2.358
308.15 K, 101 kPa, x1 = 0.618 | 2.248
308.15 K, 101 kPa, x1 = 0.669 | 2.142
308.15 K, 101 kPa, x1 = 0.816 | 1.819
313.15 K, 101.33 kPa, x1 = 0.0222 | 0.848
313.15 K, 101.33 kPa, x1 = 0.0806 | 1.327
313.15 K, 101.33 kPa, x1 = 0.17 | 1.786
